From ChEMBL document CHEMBL4699392, “Application of triazoles as bioisosteres and linkers in the development of microtubule targeting agents” (RSC Med Chem, 2020)
Each block holds one compound with its values, some of them ahead of it.

Experiments:
Tubulin [1] = assay: Inhibition of tubulin polymerization (unknown origin) incubated for 1 hr by fluorescence based assay; format: protein-complex assay, Homo sapiens
HeLa = assay: Cytotoxicity against human HeLa cells assessed as reduction in cell viability incubated for 48 hrs by MTT assay; format: functional, cell-based
A549 [2] = assay: Cytotoxicity against human A549 cells assessed as reduction in cell viability incubated for 48 hrs by MTT assay; format: functional, cell-based; conditions: A549, 48 h
BJAB [3] = assay: Cytotoxicity against human BJAB cells; format: functional, cell-based
A549 [4] = assay: Cytotoxicity against human A549 cells assessed as reduction in cell viability incubated for 24 hrs by MTT assay; format: functional, cell-based; conditions: A549, 24 h
MCF7 = assay: Cytotoxicity against human MCF7 cells assessed as reduction in cell viability incubated for 24 hrs by MTT assay; format: functional, cell-based; conditions: MCF7, 24 h
HT-1080 [5] = assay: Cytotoxicity against human HT-1080 cells assessed as reduction in cell viability incubated for 24 hrs by MTT assay; format: functional, cell-based; conditions: HT-1080, 24 h
HT-29 = assay: Cytotoxicity against human HT-29 cells assessed as reduction in cell viability incubated for 24 hrs by MTT assay; format: functional, cell-based; conditions: HT-29, 24 h
B16 = assay: Cytotoxicity against mouse B16 cells assessed as reduction in cell viability incubated for 72 hrs by MTT assay; format: functional, cell-based; conditions: B16, 72 h
[6] = Inhibition of bovine brain tubulin polymerization by spectrometric analysis; format: tissue-based, Bos taurus
Tubulin [7] = assay: Inhibition of tubulin polymerization (unknown origin) measured for every 1 min interval for 90 mins by fluorescence based assay; format: protein-complex assay, Homo sapiens
SGC-7901 [8] = assay: Cytotoxicity against human SGC-7901 cells assessed as reduction in cell viability incubated for 24 hrs by MTT assay; format: functional, cell-based; conditions: SGC-7901, 24 h
Sus scrofa = organism: Sus scrofa; assay: Displacement of fluorescein-colchicine from pig brain tubulin incubated for 1 hr by fluorescence based gel exclusion assay; format: tissue-based; conditions: concentration not given here
BJAB [9] = assay: Cytotoxicity against human BJAB cells assessed as reduction in cell viability incubated for 24 hrs by CASY cell counter method; format: functional, cell-based
SGC-7901 [10] = assay: Cytotoxicity against human SGC-7901 cells; format: functional, cell-based
A549 [11] = assay: Cytotoxicity against human A549 cells; format: functional, cell-based
HT-1080 [12] = assay: Cytotoxicity against human HT-1080 cells; format: functional, cell-based
[13] = Cytotoxicity against Leukemia cell line (unknown origin) assessed as reduction in cell viability incubated for 72 hrs by MTT assay; format: functional
[14] = Cytotoxicity against Ovarian cancer cell line (unknown origin) assessed as reduction in cell viability incubated for 72 hrs by MTT assay; format: functional
[15] = Cytotoxicity against Prostate tumor cell line (unknown origin) assessed as reduction in cell viability incubated for 72 hrs by MTT assay; format: functional
[16] = Cytotoxicity against Cervical carcinoma cell line (unknown origin) assessed as reduction in cell viability incubated for 72 hrs by MTT assay; format: functional
[17] = Cytotoxicity against Breast cancer cells (unknown origin) assessed as reduction in cell viability incubated for 72 hrs by MTT assay; format: functional, cell-based; conditions: Breast cancer cell line

Structure (SMILES): COc1ccc(S(=O)(=O)Nc2cccnc2Nc2ccc(O)cc2)cc1 [ABT-751]
IC50 (HeLa): 2180 nM
IC50 (A549 [2]): 1620 nM

Structure (SMILES): CCCCCCCC/C=C\CCCCCCCC(=O)OCc1cn(C2CCc3cc(OC)c(OC)c(OC)c3-c3ccc(OC)c(=O)cc32)nn1 (centres undefined)
IC50 (BJAB [3]): 6 nM

Structure (SMILES): COc1ccc(/C=C\c2cc(OC)c(OC)c(OC)c2)cc1O [COMBRETASTATIN A4]
IC50 (B16): 56000 nM

Structure (SMILES): CCCCCCCCCCCCCCCCCC(=O)OCc1cn(C2CCc3cc(OC)c(OC)c(OC)c3-c3ccc(OC)c(=O)cc32)nn1 (centres undefined)
IC50 (BJAB [3]): 4 nM

Structure (SMILES): COc1cc(/C(=N/O)c2cnn(-c3ccccc3)n2)cc(OC)c1OC
IC50 (SGC-7901 [10]): 120 nM
IC50 (A549 [11]): 120 nM
IC50 (HT-1080 [12]): 120 nM

Structure (SMILES): COc1cc(-c2nncn2-c2ccc3c(ccn3C)c2)cc(OC)c1OC
IC50 [13]: 2.1 nM
IC50 [14]: 2.1 nM
IC50 [15]: 2.1 nM
IC50 [16]: 2.1 nM
IC50 [17]: 2.1 nM

Second part, led by results:

IC50 (Tubulin [1]): 1840 nM
Structure (SMILES): O=C(c1cn(Cc2cccc(Oc3ccccc3)c2)nn1)c1cccnc1Nc1ccc(F)cc1

IC50 (Tubulin [1]): 170 nM
Structure (SMILES): COc1cc(Cc2nnc(S)n2/N=C\c2cccc(Cl)c2Cl)cc(OC)c1OC
IC50 (A549 [4]): 9710 nM
IC50 (MCF7): 3330 nM
IC50 (HT-1080 [5]): 12500 nM
IC50 (HT-29): 4250 nM

IC50 [6]: 660 nM
Structure (SMILES): COc1cc(C(=O)n2nc(-c3ccc(C)cc3)nc2N)cc(OC)c1OC

IC50 (Tubulin [1]): 2040 nM
Structure (SMILES): COc1cc(Nc2ncccc2NC(=O)c2cn(Cc3cccc(Oc4ccccc4)c3)nn2)cc(OC)c1
IC50 (HeLa): 1330 nM
IC50 (A549 [2]): 1020 nM

IC50 (Tubulin [7]): 1600 nM
Structure (SMILES): COc1cccc(-c2nnc3n2N=C(c2ccc(OC)c(N)c2)CS3)c1
IC50 (A549 [4]): 11 nM
IC50 (HT-1080 [5]): 11 nM
IC50 (SGC-7901 [8]): 11 nM

inhibition (Sus scrofa): > 80%
Structure (SMILES): CCCCCCCCCCCC(=O)OCc1cn(C2CCc3cc(OC)c(OC)c(OC)c3-c3ccc(OC)c(=O)cc32)nn1 (centres undefined)
IC50 (BJAB [9]): 10 nM
